Where “and” joins values, the source holds several entries; their conditions need not be identical. Equal entries are not always repeated. Where two headings read alike, the source gives them in different places. Values belong to the compound of their own block, whether it stands above or below them.
Key:
[1] = system: T. b. rhodesiense STIB 900 bloodstream forms; assay: Anti-trypanosomal activity on T. brucei rhodesiense (Alamar blue); type: cell-based, Trypanosoma brucei rhodesiense
Protocol: Minimum Essential Medium with Earle’s salts (50.0 µL) supplemented with 0.2 mM 2-mercaptoethanol, 1.0 mM Na pyruvate and 15% heat-inactivated horse serum was added to each well of a 96-well microtiter plate. Serial drug dilutions of eleven 3-fold steps covering a range from 100 to 0.002 µM were prepared. Then 10^4 bloodstream forms of T. b. rhodesiense STIB 900 in 50.0 µL of medium were added to each well and the plate incubated at 37 °C under a 5% CO2 atmosphere for 72 h. Alamar blue solution (10.0 µL of a solution of 12.5 mg resazurin dissolved in 100 mL distilled water) were then added to each well and incubation continued for a further 2–4 h. The plate was then read in a Spectramax Gemini XS microplate fluorometer (Molecular Devices Corporation, Sunnyvale, CA, USA) using an excitation wavelength of 536 nm and emission wavelength of 588 nm. Fluorescence development was measured and expressed as percentage of the control. Data were transferred into the graphic programme Softmax Pro (Molecular Devices), which calculated IC50 values.

[2] = system: L. donovani amastigotes (strain MHOM/ET/67/L82); assay: Antileishmanial activity on L. donovani (axenic amastigote assay); type: cell-based, Leishmania donovani; conditions: for IC50: 72 h, axenic amastigotes, mean ± margin of deviation of two independent determinations
Protocol: Fifty µL of SM medium at pH 5.4 supplemented with 10% heat-inactivated FBS, was added to each well of a 96-well microtiter plate. Serial drug dilutions were prepared covering a range from 100.0 to 0.002 µM. Then 10^5 axenically grown L. donovani amastigotes (strain MHOM/ET/67/L82) in 50.0 µL medium were added to each well and the plate incubated at 37 °C under a 5% CO2 atmosphere for 72 h. Resazurin solution (10.0 µL, 12.5 mg resazurin dissolved in 100 mL distilled water) were then added to each well and incubation continued for a further 2–4 h. The plate was then read in a Spectramax Gemini XS microplate fluorometer (Molecular Devices, Sunnyvale, CA, USA) using an excitation wavelength of 536 nm and emission wavelength of 588 nm. Fluorescence development was measured and expressed as percentage of the control. Data were transferred into the graphic programme Softmax Pro (Molecular Devices) which calculated IC50 values from the sigmoidal inhibition curves.

[3] = system: P. falciparum NF54 strain; assay: Antiplasmodial activity, [3H]-hypoxanthine incorporation assay; type: cell-based, Plasmodium falciparum
Protocol: Antiplasmodial activity was determined using the NF54 strain of P. falciparum (drug sensitive). A modification of the [^3H]-hypoxanthine incorporation assay was used. […] After 48 h of incubation at 37 °C in a reduced oxygen atmosphere, 0.5 μCi ^3H-hypoxanthine was added to each well. Cultures were incubated for a further 24 h before they were harvested onto glass-fiber filters and washed with distilled water. The radioactivity was counted using a Betaplate™ liquid scintillation counter (Wallac, Zurich, Switzerland). […] From the sigmoidal inhibition curves IC50 values were calculated. Assays were run in duplicate and repeated once.

[4] = Cytotoxicity assay against L6 cells; type: cell-based; conditions: rat skeletal myoblast L6, mean ± margin of deviation of two independent determinations
Protocol: Cytotoxicity was assessed using rat skeletal myoblasts (L6 cells) and a similar protocol as used for the Tbr assay. […] All following steps were according to the T. b. rhodesiense protocol (see Section 3.3. above).

T. brucei = conditions: cited from earlier work
malarial parasite = system: malarial parasite; design: method as in PMID 21157686; conditions: cited from earlier work
[5] = Trypanosoma brucei, 72 h; mean ± margin of deviation of two independent determinations; read-out: IC50 Values T. b. rhodesiense
[6] = Plasmodium falciparum, NF54, NF54 strain, mean ± margin of deviation of two independent determinations, read-out: IC50 Values P. falciparum
[7] = L6 cells (rat skeletal myoblasts)
[8] = Plasmodium falciparum, NF54, read-out: IC50 Values P. falciparum
[9] = 72 h; mean ± margin of deviation of two independent determinations; read-out: IC50 Values T. b. rhodesiense

- IC50 ([2]; Leishmania donovani): < 0.2 µM
- IC50 [2]: 0.17 ± 0.05 µM
- IC50 [3, 6]: 7.37 ± 0.35 µM
Structure (SMILES): C=C1CO[C@H]2/C=C(\C)CC[C@@H](O)[C@@](C)(O)C/C=C/[C@](C)(O)CC[C@@]12O [Compound 8, lobocrasol C]
- Activity against bloodstream forms of T. brucei (in words) [1]: showed activity
- IC50 [1, 5]: 9.37 ± 0.74 µM
- Antileishmanial activity (in words) [2]: strongly and selectively active
- IC50 [4, 7]: 40.5 ± 7.75 µM

Structure (SMILES): C=C(C)C1CC(=O)CC2OC(C)(CC2=O)CC2C=C(C(=O)O2)C(OC)C1 (stereo not drawn) [Compound 21, 13-Epi-scabrolide C]
- Activity against bloodstream forms of T. brucei (in words) [1]: showed activity
- IC50 [1, 5]: 11.8 ± 4.46 µM
- IC50 [4, 7]: 47.5 ± 6 µM

Structure (SMILES): C/C1=C\CC/C(C)=C/C[C@](O)(C(C)C)CC/C(C)=C/CC1 [serratol, reference compound]
- In vitro activity against T. brucei (in words) (T. brucei): also showed such activity
- Activity against the malarial parasite (in words) (malarial parasite): some activity

Structure (SMILES): C/C1=C\[C@@H]2O[C@@H](O)[C@@]3(C)O[C@@]23CC/C(C)=C/CC[C@](C)(O)[C@H](O)CC1 [Compound 7, lobocrasol B]
- Antileishmanial activity (in words) [2]: devoid of antileishmanial activity

- IC50 ([2]; Leishmania donovani): 0.14 ± 0.05 µM
Structure (SMILES): CCCCCCCCCCCCCCCCOP(=O)([O-])OCC[N+](C)(C)C [Miltefosine, reference compound]
- IC50 [4, 7]: 143 ± 35.3 µM

Structure (SMILES): C=C(C)C1CCC23OC2C(CC(C)(O)C=C2C=C(C(=O)OC)C(OC)(C1)O2)OC3=O (centres unmarked) [Compound 18, Sinumaximol C]
- Activity against bloodstream forms of T. brucei (in words) [1]: showed activity
- IC50 [1, 5]: 9.88 ± 1.93 µM
- IC50 [4, 7]: 28.7 ± 9.95 µM

Structure (SMILES): C=C(C)C1CC=C(C(=O)OC)CC(=O)CC(C)(O)C(O)C2=CC(C(=O)OC)=C(C1)O2 (centres unmarked) [Compound 17, Sinumaximol A]
- IC50 ([1]; Trypanosoma brucei; 72 h; mean ± margin of deviation of two independent determinations; read-out: IC50 Values T. b. rhodesiense): > 20 µM
- IC50 [3, 8]: 7.2 ± 0.71 µM
- IC50 [4]: 45 ± 2.9 µM

Structure (SMILES): C=C1CCC(C(C)C)C=CC(C)(O)CC=CC(C)(O)CCC1O [Compound 16, (1S,2E,4S,6E,8S,11S)-2,6,12(20)-cembrantriene-4,8,11-triol]
- Activity against bloodstream forms of T. brucei (in words) [1]: showed activity
- IC50 [1, 9]: 0.65 ± 0.01 µM
- Selectivity index, times more active against Tbr than against L6 cells ([1]; L6 vs Tbr): 75
- IC50 [1, 5]: ≤ 1 µM
- IC50 [4, 7]: 48.6 ± 3.45 µM

Structure (SMILES): CC1=C2CCC3(C)OC2(OC1)C1C3CCC(C)(O)C2CCC1(C)O2 (centres unmarked) [Compound 12, crassumol D]
- Activity against bloodstream forms of T. brucei (in words) [1]: showed activity
- IC50 [1, 9]: 0.61 ± 0.01 µM
- Selectivity index, times more active against Tbr than against L6 cells ([1]; L6 vs Tbr): 96
- IC50 [1, 5]: ≤ 1 µM
- IC50 [4, 7]: 58.7 ± 1 µM

- IC50 ([2]; Leishmania donovani): < 0.2 µM
- IC50 [2]: 0.18 ± 0.02 µM
Structure (SMILES): C/C1=C\[C@@H]2O[C@@H](O)[C@@]3(C)O[C@@]23CC/C(C)=C/CC[C@](C)(O)[C@@H](O)CC1 [Compound 6, Lobocrasol A]
- Activity against bloodstream forms of T. brucei (in words) [1]: showed activity
- IC50 [1, 5]: 9.97 ± 0.64 µM
- Antileishmanial activity (in words) [2]: strongly and selectively active
- IC50 [4, 7]: 56 ± 3.65 µM

Structure (SMILES): Nc1nc(N)nc(Nc2ccc([As]3SCC(CO)S3)cc2)n1 (centres unmarked) [Melarsoprol, reference compound]
- IC50 ([1]; Trypanosoma brucei, 72 h, read-out: IC50 Values T. b. rhodesiense): 0.005 µM
- IC50 [4]: 28.9 ± 9.3 µM

- IC50 ([3]; NF54 strain, mean ± margin of deviation of two independent determinations, read-out: IC50 Values P. falciparum): < 5 µM and 3.02 µM
- IC50 [3, 6]: 3 µM
Structure (SMILES): C/C1=C\[C@@H]2O[C@@H](O)[C@@]3(C)O[C@@]23CC/C(C)=C/CC[C@@]2(C)O[C@H]2CC1 [Compound 10, laevigatol A]
- IC50 [1, 5]: > 20 µM
- Selectivity index SI = IC50(L6)/IC50(parasite), P. falciparum ([3]; L6 vs Pf): 9.52
- IC50 [4, 7]: 28.8 ± 10.3 µM

- IC50 [3, 6]: 14.8 ± 0.9 µM
Structure (SMILES): CC1=CCCC(C)(O)C=CC(C(C)C)CCC(C)=CCC1 [Compound 2, (1R,4R,2E,7E,11E)-cembra-2,7,11-trien-4-ol]
- Activity against bloodstream forms of T. brucei (in words) [1]: showed activity
- IC50 [1, 9]: 1.14 ± 0.5 µM
- Selectivity index, times more active against Tbr than against L6 cells ([1]; L6 vs Tbr): 43
- IC50 [1, 5]: ≤ 1 µM
- IC50 [4, 7]: 49.4 ± 5.2 µM

- IC50 [3, 6]: 7.57 ± 0.59 µM
Structure (SMILES): C=C1CCC2=C(C)C(=O)OC2C=C(C)CCC(O)C2(C)CCC1O2 (centres unmarked) [Compound 15, Crassumol G]
- Activity against bloodstream forms of T. brucei (in words) [1]: showed activity
- IC50 [1, 5]: 12.2 ± 0.1 µM
- IC50 [4, 7]: 33.2 ± 13.5 µM

- IC50 [3, 8]: 0.004 µM
Structure (SMILES): CCN(CC)CCCC(C)Nc1ccnc2cc(Cl)ccc12 (centres unmarked) [Chloroquine, reference compound]
- IC50 [4]: 120 ± 27.5 µM

Structure (SMILES): C=C1CO[C@H]2/C=C(\C)CC[C@@H]3O[C@]3(C)CC/C=C(\C)CC[C@@]12O [Compound 11, laevigatol B]
- In vitro activity against T. brucei (in words) (T. brucei): active

- IC50 [3, 6]: 22.95 ± 0.15 µM
Structure (SMILES): COC(=O)C(C)C1=CC=C(C)CCC2OC2(C)CCC=C(C)CC1 (stereo not drawn) [Compound 1, 7S,8S-epoxy-1,3,11-cembratriene-16-oic methyl ester]
- Activity against bloodstream forms of T. brucei (in words) [1]: showed activity
- IC50 [1, 9]: 1 ± 0.19 µM
- IC50 [1, 5]: ≤ 1 µM
- IC50 [4, 7]: > 54 µM

- IC50 [3, 6]: 7.43 ± 0.86 µM
Structure (SMILES): C=C1CCC2(O)C(=C)COC2C=C(C)CCC(O)C2(C)CCC1O2 (centres unmarked) [Compound 13, crassumol E]
- Activity against bloodstream forms of T. brucei (in words) [1]: showed activity
- IC50 [1, 9]: 0.72 ± 0.04 µM
- Selectivity index, times more active against Tbr than against L6 cells ([1]; L6 vs Tbr): 60
- IC50 [1, 5]: ≤ 1 µM
- IC50 [4, 7]: 43 ± 2.6 µM
